Experiments:
Test in all cases: two-electrode voltage clamp, Xenopus oocytes
Type in all cases: cell-based
hTASK-3 (K2P9.1, KCNK9) = target: T1, hTASK-3 (K2P9.1, KCNK9) (Homo sapiens, UniProt Q9NPC2); conditions: read-out: TASK-3
T1 construct: full-length cDNA in pBR4-TOPO (mutants in pCDNA3); cRNA injected into Xenopus laevis oocytes
Text: two-electrode voltage clamp, Xenopus oocytes on hTASK-3 (K2P9.1, KCNK9)

hTASK-1 (K2P3.1, KCNK3) = target: T2, hTASK-1 (K2P3.1, KCNK3) (Homo sapiens, UniProt O14649); conditions: read-out: TASK-1
T2 construct: full-length cDNA in pIRES-CD8 vector; cRNA injected into Xenopus laevis oocytes
T2 sequence (O14649 whole entry): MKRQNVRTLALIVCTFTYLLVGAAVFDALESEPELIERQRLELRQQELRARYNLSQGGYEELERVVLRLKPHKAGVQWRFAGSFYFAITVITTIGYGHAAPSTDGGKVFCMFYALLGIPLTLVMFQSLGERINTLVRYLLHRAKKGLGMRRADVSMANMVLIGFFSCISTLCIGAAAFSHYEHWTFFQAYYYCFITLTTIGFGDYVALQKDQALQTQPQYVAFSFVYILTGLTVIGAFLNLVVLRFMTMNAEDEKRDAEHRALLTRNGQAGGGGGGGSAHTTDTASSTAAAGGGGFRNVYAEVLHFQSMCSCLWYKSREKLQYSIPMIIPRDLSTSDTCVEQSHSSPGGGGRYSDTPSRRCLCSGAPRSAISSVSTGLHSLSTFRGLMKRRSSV
Text: two-electrode voltage clamp, Xenopus oocytes on hTASK-1 (K2P3.1, KCNK3)

hTRESK (K2P18.1, KCNK18) = target: T3, hTRESK (K2P18.1, KCNK18) (Homo sapiens, UniProt Q7Z418); conditions: read-out: TRESK
T3 construct: full-length cDNA in plasmid pEXO; cRNA injected into Xenopus laevis oocytes
T3 sequence (Q7Z418 1-384): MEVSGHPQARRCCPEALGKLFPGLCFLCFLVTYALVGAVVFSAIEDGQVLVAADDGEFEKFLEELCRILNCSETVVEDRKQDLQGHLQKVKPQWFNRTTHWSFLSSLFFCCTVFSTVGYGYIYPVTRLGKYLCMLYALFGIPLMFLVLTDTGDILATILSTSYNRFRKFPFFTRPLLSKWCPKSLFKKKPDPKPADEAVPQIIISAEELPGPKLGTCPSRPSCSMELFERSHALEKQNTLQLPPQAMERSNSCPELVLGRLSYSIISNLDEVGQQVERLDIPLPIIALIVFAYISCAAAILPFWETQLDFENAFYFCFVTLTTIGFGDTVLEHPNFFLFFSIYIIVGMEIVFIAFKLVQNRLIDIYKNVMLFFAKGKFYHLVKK
Text: two-electrode voltage clamp, Xenopus oocytes on hTRESK (K2P18.1, KCNK18)

T1 sequence (Q9NPC2 whole entry): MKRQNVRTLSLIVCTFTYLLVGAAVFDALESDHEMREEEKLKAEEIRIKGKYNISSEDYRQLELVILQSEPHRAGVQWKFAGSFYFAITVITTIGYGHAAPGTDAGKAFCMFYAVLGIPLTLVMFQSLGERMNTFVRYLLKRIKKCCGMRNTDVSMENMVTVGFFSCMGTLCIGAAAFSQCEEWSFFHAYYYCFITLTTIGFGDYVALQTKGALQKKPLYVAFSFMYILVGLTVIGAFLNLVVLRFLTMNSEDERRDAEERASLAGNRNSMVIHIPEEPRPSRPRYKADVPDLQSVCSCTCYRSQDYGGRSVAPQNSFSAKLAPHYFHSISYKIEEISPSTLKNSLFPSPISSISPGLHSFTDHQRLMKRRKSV

SMILES	IC50 (hTASK-3 (K2P9.1, KCNK9))	IC50 (hTASK-1 (K2P3.1, KCNK3))	IC50 (hTRESK (K2P18.1, KCNK18))
CC1(C)CCC[C@]2(C)[C@@H](C=O)C(C=O)=CC[C@@H]12 [polygodial]	328 ± 24.7 µM	485 ± 18.2 µM	–
COc1cc(CNC(=O)CCCC/C=C/C(C)C)ccc1O [capsaicin]	41.8 ± 3.6 µM	61.1 ± 4 µM	70.2 ± 5.3 µM
CCCCC[C@H](O)CC(=O)CCc1ccc(O)c(OC)c1 [6-gingerol]	385 ± 55.6 µM	227 ± 46.5 µM	155 ± 70.9 µM
O=C(/C=C/C=C/c1ccc2c(c1)OCO2)N1CCCCC1 [piperine]	133 ± 5.9 µM	–	231 ± 105 µM

Source: publication PMC3831292 (Frontiers in Pharmacology, 2013)
